# Reference: PubChem BioAssay (NCI)
#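 96-well plates; 48 h exposure; 5 concentrations. Endpoints by linear interpolation between flanking doses. Not reached: highest tested concentration assigned. Here, GI50 denotes the concentration required for 50% inhibition of growth. At the TGI there is no net growth.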
# System: HCT-15 colon
# Experiment: growth of human tumour cells (NCI), 48 h
SMILES,GI50 [µM],TGI [µM]
CN(C)CC[PH+](c1ccccc1)c1ccccc1.CN(C)CC[PH+](c1ccccc1)c1ccccc1.[Cl-].[Pd+2],> 100,> 100
COc1cc(NCc2ccc3nc(N)nc(N)c3c2C)cc(OC)c1OC (tested in a mixture with another compound),0.000451,51.7
Cc1nn(-c2ccc(Cl)cc2)c2nc3c(nc12)C(=O)c1ccccc1-3,> 100,> 100
O=C(c1ccccc1)c1cc2ccccc2o1,> 100,> 100
O=C(Nc1ccncc1)C(=O)c1cn(S(=O)(=O)c2ccc(F)cc2)c2ccccc12,1.41,> 100
COc1ccc(NC(=O)/C(Cc2cc(=O)oc3cc(O)ccc23)=N\NC(C)(C)C)c(OC)c1,,> 100
O=C1/C(=C/c2ccc3c(c2)OCO3)SC2C=Nc3ccccc3N12 (stereo not drawn),,> 100
CCOc1ccc(NC(=O)C(=O)CC(=O)c2c(C)n([O-])c3ccccc3[n+]2=O)cc1,,> 100
Cc1cc(Cl)ccc1NC(=O)C(=O)Cc1nc2ccccc2o1,,> 100
OCC1OC(c2nc(C3=NCCCN3)cs2)C(O)C1O (stereo not drawn),,> 100
Oc1cccnc1[Se],,> 100
CCC(C)COC(=O)c1ccc(N=Cc2ccc(C=Nc3ccc(C(=O)OCC(C)CC)cc3)cc2)cc1 (stereo not drawn),,> 100
Cc1cc(N(CCC#N)CCC#N)ccc1N=Nc1ccc(C(=O)O)cc1,,> 100
CN(C)CC1CCCC/C1=N/OC(=O)c1ccc(Cl)cc1 (stereo not drawn),,> 100
N#CC(C(=O)C(=O)C(C#N)c1ccc(Br)cc1)c1ccc(Br)cc1 (stereo not drawn),,26.1
COc1cccc(C2=NC(C(C)C)CO2)c1 (stereo not drawn),,> 100
O=C1/C(=C/c2cccc(Cl)c2Cl)N=C(c2ccccc2)N1C1CC1,12.3,39
CCOC(=O)C(=[N+]=[N-])[Si](C)(C)C,,> 100

SMILES,GI50 [µM],TGI [µM]
O=C(CC1(O)C(=O)N(Cc2ccccc2)c2ccc(F)cc21)c1ccc(C(=O)NCC2CCC3(CC2)OOC2(CCCCC2)OO3)cc1 (stereo not drawn),0.867,3.2
COc1cc2c3c(n(C)c(=O)c2cc1OC)-c1cc2c(cc1/C3=C\CN)OCO2,0.778,19.8
CCCc1nc(NC#N)nc(C(=O)Nc2ccccc2)c1CC,,> 100
O=C(CCc1n[nH]c(=S)o1)Nc1ccccc1C(F)(F)F,,38.8
CCn1c2ccccc2c2cc(NC(=O)Nc3ccc([N+](=O)[O-])cc3C)ccc21,2.29,37.3
Cc1ccc(NC(=O)CCc2cc(C(C)(C)C)nc(=S)[nH]2)cc1C,,> 100
O=C(Nc1nc(=S)c2c(ncn2CCOC(=O)c2ccccc2)[nH]1)c1ccccc1,,> 100
COc1ccc(CC2NCCc3c2[nH]c2ccccc32)cc1 (stereo not drawn),,> 100
O=C(/C=C/c1cccc2ccccc12)c1ccccc1Cl,,24.3
COc1ccc2c(c1)C(=O)c1c-2c(N2CCN(C(=O)CNCCNCCO)CC2)nc2ccccc12,7.81,22.4
COc1ccc(Nc2nnc(-c3cc(O)ccc3O)s2)cc1,> 50,> 50
Cc1ccc(/C=C/C(=O)c2sc(-c3nc(C)c(C(=O)/C=C/c4ccc(C)cc4)s3)nc2C)cc1,,> 100
O=C1/C(=C/c2ccc(Cl)cc2)CCC1CCN1CCOCC1 (stereo not drawn),,> 100
Cn1cc(-c2csc(-c3c[nH]c4ccc(F)cc34)n2)c2cnccc21,1.67,3.36
CCC[CH2][Sn]([Cl])([CH2]CCC)[CH2]CCC,0.1,0.242
O=c1ccn([C@H]2CSC[C@@H](CO)C2)c(=O)[nH]1,,> 100
COc1cc(-n2cc(-c3ccc(F)cc3)[nH]c2=O)cc(OC)c1OC,> 100,> 100
C1CN2CCN3CCN4CCN1[P+]243,,> 100

# System: NCI/ADR-RES ovarian
# Experiment: growth of human tumour cells (NCI), 48 h
SMILES,GI50 [µM],TGI [µM]
CN(C)CC[PH+](c1ccccc1)c1ccccc1.CN(C)CC[PH+](c1ccccc1)c1ccccc1.[Cl-].[Pd+2],> 100,> 100
COc1cc(NCc2ccc3nc(N)nc(N)c3c2C)cc(OC)c1OC (tested in a mixture with another compound),,229
Cc1nn(-c2ccc(Cl)cc2)c2nc3c(nc12)C(=O)c1ccccc1-3,> 100,> 100
O=C(c1ccccc1)c1cc2ccccc2o1,77.4,> 100
O=C(Nc1ccncc1)C(=O)c1cn(S(=O)(=O)c2ccc(F)cc2)c2ccccc12,1.76,> 100
Nc1nc(/C=C\c2ccc([N+](=O)[O-])s2)nc(N2CCCC2)n1,4.51,23.2
Oc1cccnc1[Se],,> 100
O=C1/C(=C/c2cccc(Cl)c2Cl)N=C(c2ccccc2)N1C1CC1,11.8,31.1
O=C(CC1(O)C(=O)N(Cc2ccccc2)c2ccc(F)cc21)c1ccc(C(=O)NCC2CCC3(CC2)OOC2(CCCCC2)OO3)cc1 (stereo not drawn),0.373,1.14
COc1cc2c3c(n(C)c(=O)c2cc1OC)-c1cc2c(cc1/C3=C\CN)OCO2,1.21,68.7
CCn1c2ccccc2c2cc(NC(=O)Nc3ccc([N+](=O)[O-])cc3C)ccc21,4.65,> 100
COc1ccc2c(c1)C(=O)c1c-2c(N2CCN(C(=O)CNCCNCCO)CC2)nc2ccccc12,15,33.1
COc1ccc(Nc2nnc(-c3cc(O)ccc3O)s2)cc1,> 50,> 50
Cn1cc(-c2csc(-c3c[nH]c4ccc(F)cc34)n2)c2cnccc21,1.98,3.98
COc1cc(-n2cc(-c3ccc(F)cc3)[nH]c2=O)cc(OC)c1OC,> 100,> 100

# System: KM12 colon
# Experiment: growth of human tumour cells (NCI), 48 h
SMILES,GI50 [µM],TGI [µM]
CN(C)CC[PH+](c1ccccc1)c1ccccc1.CN(C)CC[PH+](c1ccccc1)c1ccccc1.[Cl-].[Pd+2],> 100,> 100
COc1cc(NCc2ccc3nc(N)nc(N)c3c2C)cc(OC)c1OC (tested in a mixture with another compound),,46.6
Cc1nn(-c2ccc(Cl)cc2)c2nc3c(nc12)C(=O)c1ccccc1-3,> 100,> 100
O=C(c1ccccc1)c1cc2ccccc2o1,> 100,> 100
O=C(Nc1ccncc1)C(=O)c1cn(S(=O)(=O)c2ccc(F)cc2)c2ccccc12,1.49,> 100
COc1ccc(NC(=O)/C(Cc2cc(=O)oc3cc(O)ccc23)=N\NC(C)(C)C)c(OC)c1,,> 100
Nc1nc(/C=C\c2ccc([N+](=O)[O-])s2)nc(N2CCCC2)n1,1.22,6.51
O=C1/C(=C/c2ccc3c(c2)OCO3)SC2C=Nc3ccccc3N12 (stereo not drawn),,> 100
CCOc1ccc(NC(=O)C(=O)CC(=O)c2c(C)n([O-])c3ccccc3[n+]2=O)cc1,,> 100
Cc1cc(Cl)ccc1NC(=O)C(=O)Cc1nc2ccccc2o1,,> 100
OCC1OC(c2nc(C3=NCCCN3)cs2)C(O)C1O (stereo not drawn),,> 10
Oc1cccnc1[Se],,> 100
Cc1cc(N(CCC#N)CCC#N)ccc1N=Nc1ccc(C(=O)O)cc1,,> 100
CN(C)CC1CCCC/C1=N/OC(=O)c1ccc(Cl)cc1 (stereo not drawn),,> 100
N#CC(C(=O)C(=O)C(C#N)c1ccc(Br)cc1)c1ccc(Br)cc1 (stereo not drawn),,22.4
COc1cccc(C2=NC(C(C)C)CO2)c1 (stereo not drawn),,> 100
O=C1/C(=C/c2cccc(Cl)c2Cl)N=C(c2ccccc2)N1C1CC1,11.9,34.4
CCOC(=O)C(=[N+]=[N-])[Si](C)(C)C,,> 100
O=C(CC1(O)C(=O)N(Cc2ccccc2)c2ccc(F)cc21)c1ccc(C(=O)NCC2CCC3(CC2)OOC2(CCCCC2)OO3)cc1 (stereo not drawn),0.338,1.19
COc1cc2c3c(n(C)c(=O)c2cc1OC)-c1cc2c(cc1/C3=C\CN)OCO2,1.18,12.1
CCCc1nc(NC#N)nc(C(=O)Nc2ccccc2)c1CC,,> 100
O=C(CCc1n[nH]c(=S)o1)Nc1ccccc1C(F)(F)F,,> 100
